Data published in patent US12162840B2, “Herbicidal compositions” (SYNGENTA PARTICIPATIONS AG, priority 2018, dated 2024).

How the values were obtained:
Experiment in all cases: B1 Post-emergence efficacy Test 1
Assay type in all cases: in vivo
Settings in all cases: post-emergence application, 1000 g/ha, evaluated after 13 days
[1] = test system: Ipomoea hederacea (IPOHE)
Procedure: (§1) Seeds of a variety of test species are sown in standard soil in pots:—Solanum nigrum (SOLNI), Amaranthus retoflexus (AMARE), Setaria faberi (SETFA), Alopecurus myosuroides (ALOMY), Echinochloa crus-galli (ECHCG), Ipomoea hederacea (IPOHE), Lolium perenne (LOLPE). After 8 days cultivation (post-emergence) under controlled conditions in a glasshouse (at 24/16° C., day/night; 14 hours light; 65% humidity), the plants are sprayed with an aqueous spray solution derived from the formulation of the technical active ingredient in acetone/water (50:50) solution containing 0.5% Tween 20 (polyoxyethylene sorbitan monolaurate, CAS RN 9005-64-5). Compounds are applied at 1000 g/ha. The test plants are then grown in a glasshouse under controlled conditions in a glasshouse (at 24/16° C., day/night; 14 hours light; 65% humidity) and watered twice daily. After 13 days, the test is evaluated for the percentage damage caused to the plant. The biological activities are assessed on a five point scale (5=80-100%; 4=60-79%; 3=40-59%; 2=20-39%; 1=0-19%). A blank value in the table is indicative that the compound was not tested on that species.

Setaria faberi (SETFA) = test system: Setaria faberi (SETFA)
Procedure: as §1

Solanum nigrum (SOLNI) = test system: Solanum nigrum (SOLNI)
Procedure: as §1

[2] = test system: Amaranthus retoflexus (AMARE)
Procedure: as §1

Lolium perenne (LOLPE) = test system: Lolium perenne (LOLPE)
Procedure: as §1

[3] = test system: Echinochloa crus-galli (ECHCG)
Procedure: as §1

| SMILES | percentage damage caused to the plant, five point scale, IPOHE [1] | percentage damage caused to the plant, five point scale, SETFA (Setaria faberi (SETFA)) | percentage damage caused to the plant, five point scale, SOLNI (Solanum nigrum (SOLNI)) | percentage damage caused to the plant, five point scale, AMARE [2] | percentage damage caused to the plant, five point scale, LOLPE (Lolium perenne (LOLPE)) | percentage damage caused to the plant, five point scale, ECHCG [3] |
| --- | --- | --- | --- | --- | --- | --- |
| Cc1nn(C)c(=O)c(-c2c(F)ccc(Cl)c2CCc2ccccc2)c1O [Compound 1.001] | 5 (5=80-100%) | 5 (5=80-100%) | 5 (5=80-100%) | 5 (5=80-100%) | 5 (5=80-100%) | 5 (5=80-100%) |
| Cc1nn(C)c(=O)c(-c2c(F)ccc(Cl)c2/C=C/c2ccccc2)c1O [Compound 1.002] | 5 (5=80-100%) | 3 (3=40-59%) | 5 (5=80-100%) | 4 (4=60-79%) | 4 (4=60-79%) | 4 (4=60-79%) |
| Cc1nn(C)c(=O)c(-c2c(F)ccc(Cl)c2CCc2ccc(C(F)(F)F)cc2)c1O [Compound 1.018] | 5 (5=80-100%) | 5 (5=80-100%) | 5 (5=80-100%) | 5 (5=80-100%) | 5 (5=80-100%) | 5 (5=80-100%) |
| Cc1nn(C)c(=O)c(-c2c(F)ccc(Cl)c2CCc2ccc(F)c(F)c2)c1O [Compound 1.060] | 5 (5=80-100%) | 5 (5=80-100%) | 5 (5=80-100%) | 5 (5=80-100%) | 5 (5=80-100%) | 5 (5=80-100%) |
| Cc1nn(C)c(=O)c(-c2c(F)ccc(Cl)c2CCc2ccc(C(F)(F)F)cc2)c1OC(=O)C(C)C [Compound 1.095] | 5 (5=80-100%) |  | 5 (5=80-100%) | 5 (5=80-100%) | 5 (5=80-100%) | 5 (5=80-100%) |
| Cc1ccc(CCc2c(Cl)ccc(F)c2-c2c(OC(=O)C(C)C)c(C)nn(C)c2=O)cc1 [Compound 1.149] | 5 (5=80-100%) | 5 (5=80-100%) | 5 (5=80-100%) | 5 (5=80-100%) | 5 (5=80-100%) | 5 (5=80-100%) |
| Cc1nn(C)c(=O)c(-c2c(F)ccc(Cl)c2CCc2ccc(Cl)cc2)c1O [Compound 1.012] | 5 (5=80-100%) | 5 (5=80-100%) | 5 (5=80-100%) | 5 (5=80-100%) | 5 (5=80-100%) | 5 (5=80-100%) |
| Cc1nn(C)c(=O)c(-c2c(F)ccc(Cl)c2CCc2cccnc2)c1O [Compound 1.054] | 5 (5=80-100%) | 5 (5=80-100%) | 5 (5=80-100%) | 5 (5=80-100%) | 5 (5=80-100%) | 5 (5=80-100%) |
